Measurements: patent US12257247B2 (Monte Rosa Therapeutics AG, priority 2023, dated 2025)
Read-outs that look alike come from different tables or passages of the source.

Target: T1, VAV1 (Homo sapiens, UniProt P15498+Q96SW2)
T1 construct: A heterozygous VAV1 C-terminal HiBiT knock-in pool was generated at Monte Rosa Therapeutics from a clonal Jurkat cell; endogenous in cells; host or cells: Jurkat clone stably expressing LgBiT, homozygous GSPT1-G575N; heterozygous VAV1-HiBiT knock-in pool
Experiment: VAV1 degradation activity, VAV1-HiBiT knock-in Jurkat luminescence assay (Example A, Table 1)
Format: cell-based
Details: VAV1-HiBiT knock-in Jurkat cells, luminescence read at 6 and 24 hours; for Dmax: Jurkat
In short: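 Jurkat cells carrying VAV1-HiBiT knock-in, plated in RPMI/10% FBS with Endurazine live-cell substrate and pre-incubated ~16 h at 37° C. Compound dosed from 10 μM stock; luminescence read 6 and 24 h later. Response normalised to plate negative/positive controls, EC50 from 3-parameter logistic fit (hillslope 1).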

[1] = read-out: VAV1 DC50 (nM), class

Compound	Dmax (read-out: VAV1 Dmax %) [%]	Dmax (read-out: VAV1 Dmax %, class) [%]	DC50 (read-out: VAV1 DC50) [nM]	DC50 [1] [nM]
CN1CCCN(c2ncc(-c3cccc(C4CCC(=O)NC4=O)c3Cl)cc2F)C1=O (centres unmarked) [Compound 382, 3-(2-chloro-3-(5-fluoro-6-(3-methyl-2-oxotetrahydropyrimidin-1(2H)-yl)pyridin-3-yl)phenyl)piperidine-2,6-dione]	76	60 to 90	167	100 to 1000
CN1CCCN(Cc2ncc(-c3cccc(C4CCC(=O)NC4=O)c3Cl)cc2F)C1=O (centres unmarked) [Compound 383, 3-(2-chloro-3-(5-fluoro-6-((3-methyl-2-oxotetrahydropyrimidin-1(2H)-yl)methyl)pyridin-3-yl)phenyl)piperidine-2,6-dione]	80.2	60 to 90	113	100 to 1000
O=C1CCC(c2cccc(-c3ccc(N4C(=O)CCC45CC5)nc3)c2Cl)C(=O)N1 (centres unmarked) [Compound 384, 3-(2-chloro-3-(6-(5-oxo-4-azaspiro[2.4]heptan-4-yl)pyridin-3-yl)phenyl)piperidine-2,6-dione]	75.5	60 to 90	122	100 to 1000
O=C1CCC(c2cccc(-c3ccc(Cc4ncco4)c(F)c3)c2Cl)C(=O)N1 (centres unmarked) [Compound 385, 3-(2-chloro-3′-fluoro-4′-(oxazol-2-ylmethyl)-[1,1′-biphenyl]-3-yl)piperidine-2,6-dione]	97.8	> 90	7	≤ 100
O=C1CCC(c2cccc(-c3ccc(N4CC5(COC5)CC4=O)cc3)c2Cl)C(=O)N1 (centres unmarked) [Compound 386, 3-(2-chloro-4′-(7-oxo-2-oxa-6-azaspiro[3.4]octan-6-yl)-[1,1′-biphenyl]-3-yl)piperidine-2,6-dione]	29.2	< 60	≥ 10000	> 1000
CN1CCN(c2ccc(-c3cccc(C4CCC(=O)NC4=O)c3Cl)cc2)C1=O (centres unmarked) [Compound 387, 3-(2-chloro-4′-(3-methyl-2-oxoimidazolidin-1-yl)-[1,1′-biphenyl]-3-yl)piperidine-2,6-dione]	58.4	< 60	865	100 to 1000
CN1CCN(Cc2ccc(-c3cccc(C4CCC(=O)NC4=O)c3Cl)cc2)C1=O (centres unmarked) [Compound 388, 3-(2-chloro-4′-((3-methyl-2-oxoimidazolidin-1-yl)methyl)-[1,1′-biphenyl]-3-yl)piperidine-2,6-dione]	91	> 90	16.2	≤ 100
O=C1CCC(c2cccc(-c3ccc(N4C(=O)CCCC45CC5)nc3)c2Cl)C(=O)N1 (centres unmarked) [Compound 389, 3-(2-chloro-3-(6-(5-oxo-4-azaspiro[2.5]octan-4-yl)pyridin-3-yl)phenyl)piperidine-2,6-dione]	88.5	60 to 90	41.4	≤ 100
N#CC1(CN2C(=O)Cc3cc(-c4cccc(C5CCC(=O)NC5=O)c4Cl)ccc32)CC1 (centres unmarked) [Compound 390, 1-((5-(2-chloro-3-(2,6-dioxopiperidin-3-yl)phenyl)-2-oxoindolin-1-yl)methyl)cyclopropane-1-carbonitrile]	71.2	60 to 90	615	100 to 1000
COC1(CN2C(=O)Cc3cc(-c4cccc(C5CCC(=O)NC5=O)c4Cl)ccc32)CC1 (centres unmarked) [Compound 391, 3-(2-chloro-3-(1-((1-methoxycyclopropyl)methyl)-2-oxoindolin-5-yl)phenyl)piperidine-2,6-dione]	54	< 60	5110	> 1000
Cn1cnc(Cn2c(=O)oc3cc(-c4cccc(C5CCC(=O)NC5=O)c4Cl)ccc32)c1 (centres unmarked) [Compound 392, 3-(2-chloro-3-(3-((1-methyl-1H-imidazol-4-yl)methyl)-2-oxo-2,3-dihydrobenzo[d]oxazol-6-yl)phenyl)piperidine-2,6-dione]	94.8	> 90	12.8	≤ 100
